These results are taken from patent publication US20230293644A1, “ANTI-INFLAMMATORY PEPTIDES AND COMPOSITION COMPRISING THE SAME” (Gemvax & KAEL Co., Ltd., priority 2012, published 2023).

This test concerns TNF-α. The test can be described thus: Screening of TNF-α inhibitory effect, LPS-stimulated PBMC-derived monocytes (Example 2). Type of test: cell-based, human. Conditions: 4 uM peptide, 2 hrs, LPS 10 ng/ml; for TNF-α inhibiting effect compared to the group treated with LPS and estrogen: estrogen 20 nM. As for the experimental part:
PBMC (peripheral blood mononuclear cells) layer was separated from blood samples (50 ml) collected in healthy subjects using Biocoll Separating Solution (Biochrom AG, Berlin, Germany). The collected PBMC were enriched in RPMI 1640 medium containing 20% human serum for 30 mins, and then transferred to 100-mm polystyeren cell culture plate coated with human serum for incubation for 2 hrs at 37° C., 5% CO^2 incubator. Monocytes were detached from the bottom of the plate using cold PBS, and incubated to reach the number of 1 × 10^5 cell/well in 96-well plate with RPMI 1640 medium (supplemented with penicillinstreptomycin; […], human serum; 20%) over night.
ELISA was performed to find out how the peptides of the PEP RIA series influence TNF-α level. PBMC-derived monocytes were incubated to reach the number of 1 × 10^5 cells per well in a 96-well plate and then treated with LPS (lipopolysaccharide; 10 ng/ml, Sigma) for 2 hours. To the monocytes that were washed three times with PBS, OPTI-MEM culture medium was added to induce cell starvation for an hour, 4 µM of the peptide was taken out and incubated for 2 hours. There were three negative control groups. The first group was not treated with anything. The second group that was treated with estrogen (in this experiment, estradiol was used as a kind of estrogen). The third group was treated with LPS (10 ng/ml) or with LPS (10 ng/ml) as well as estrogen (20 nM). PEP1 that was confirmed to have TNF-α inhibiting activity was used as a positive control to measure TNF-α inhibiting activity. After incubation, TNF-α was measured by following the ELISA kit manual (R&D, Minneapolis, MN, USA). The details of quantification method can be found in Experiment 2.2 of Example 1.
Using the method stated above, Peptides with TNF-α inhibiting effect were screened. PBMC-derived monocytes were stimulated with LPS (10 ng/ml), which is endotoxin, for 2 hours and were induced to starve by adding OPTI-MEM for 1 hour. After that, 4 uM of 179 peptides were treated and incubated for 2 hrs. The amount of TNF-α in the cell culture medium was measured using ELISA, and the peptides with TNF-α inhibiting effect were screened by comparing to the negative and positive controls (FIG. 3 to FIG. 23).

In the case of EAR [SEQ ID NO: 90], the “TNF-α inhibiting effect compared to the control group treated with only LPS” value is “showed TNF-α inhibiting effect”; the “TNF-α inhibiting effect compared to the group treated with LPS and estrogen” value is “showed TNF-α inhibiting effect”.

With “REARPALLTSRLRFIPKPD (listed as Homo sapiens) [SEQ ID NO: 19]”, the “TNF-α inhibiting effect compared to the control group treated with only LPS” value is reported as “showed TNF-α inhibiting effect”; the “TNF-α inhibiting effect compared to the group treated with LPS and estrogen” value was “showed TNF-α inhibiting effect”.

For the substance “ALLTSRLRF (listed as Homo sapiens) [SEQ ID NO: 140]”, the “TNF-α inhibiting effect compared to the control group treated with only LPS” value was “showed TNF-α inhibiting effect”; the “TNF-α inhibiting effect compared to the group treated with LPS and estrogen” value is “showed TNF-α inhibiting effect”.

With RLR [SEQ ID NO: 173], the “TNF-α inhibiting effect compared to the control group treated with only LPS” value is given as “showed TNF-α inhibiting effect”; the “TNF-α inhibiting effect compared to the group treated with LPS and estrogen” value was “showed TNF-α inhibiting effect”.

With “RQHREARPALLTSRLRFIPKPDGL (listed as Homo sapiens) [SEQ ID NO: 28]”, the “TNF-α inhibiting effect compared to the control group treated with only LPS” value is “showed TNF-α inhibiting effect”.

Regarding “EARPALLTSRLRF (listed as Homo sapiens) [SEQ ID NO: 80]”, the “TNF-α inhibiting effect compared to the control group treated with only LPS” value is on record as “showed TNF-α inhibiting effect”; the “TNF-α inhibiting effect compared to the group treated with LPS and estrogen” value is “showed TNF-α inhibiting effect”.

As to “LTSRL (listed as Homo sapiens) [SEQ ID NO: 157]”, the “TNF-α inhibiting effect compared to the control group treated with only LPS” value is “showed TNF-α inhibiting effect”; the “TNF-α inhibiting effect compared to the group treated with LPS and estrogen” value is given as “showed TNF-α inhibiting effect”.

“EVRQHREARPALLTSRLRFIPKPDGLRP (listed as Homo sapiens) [SEQ ID NO: 46]”: the “TNF-α inhibiting effect compared to the control group treated with only LPS” value is “showed TNF-α inhibiting effect”.

Regarding “LLTSR (listed as Homo sapiens) [SEQ ID NO: 150]”, the “TNF-α inhibiting effect compared to the control group treated with only LPS” value is listed as “showed TNF-α inhibiting effect”.

Regarding “RFIPK (listed as Homo sapiens) [SEQ ID NO: 101]”, the “TNF-α inhibiting effect compared to the control group treated with only LPS” value was “showed TNF-α inhibiting effect”; the “TNF-α inhibiting effect compared to the group treated with LPS and estrogen” value is recorded as “showed TNF-α inhibiting effect”.

For “EARPALLTSRLRFIPKPDGLRPIVNMD (listed as Homo sapiens) [SEQ ID NO: 74]”, the “TNF-α inhibiting effect compared to the control group treated with only LPS” value is on record as “showed TNF-α inhibiting effect”.

Take “PALLTSRLRFI (listed as Homo sapiens) [SEQ ID NO: 131]”: the “TNF-α inhibiting effect compared to the control group treated with only LPS” value is reported as “showed TNF-α inhibiting effect”.

“RLRFIPK (listed as Homo sapiens) [SEQ ID NO: 99]”: the “TNF-α inhibiting effect compared to the control group treated with only LPS” value was “showed TNF-α inhibiting effect”; the “TNF-α inhibiting effect compared to the group treated with LPS and estrogen” value was “showed TNF-α inhibiting effect”.

For the substance RFI [SEQ ID NO: 178], the “TNF-α inhibiting effect compared to the control group treated with only LPS” value was “showed TNF-α inhibiting effect”.

Regarding TSR [SEQ ID NO: 164], the “TNF-α inhibiting effect compared to the control group treated with only LPS” value was “showed TNF-α inhibiting effect”; the “TNF-α inhibiting effect compared to the group treated with LPS and estrogen” value is “showed TNF-α inhibiting effect”.

For the substance “SRLR (listed as Homo sapiens) [SEQ ID NO: 168]”, the “TNF-α inhibiting effect compared to the control group treated with only LPS” value is given as “showed TNF-α inhibiting effect”.

As for “AEVRQHREARPALLTSRLRFIPKPDGLR (listed as Homo sapiens) [SEQ ID NO: 56]”, the “TNF-α inhibiting effect compared to the control group treated with only LPS” value is “showed TNF-α inhibiting effect”; the “TNF-α inhibiting effect compared to the group treated with LPS and estrogen” value is on record as “showed TNF-α inhibiting effect”.

On to “ARPALLTSRLRFI (listed as Homo sapiens) [SEQ ID NO: 110]”, for which the “TNF-α inhibiting effect compared to the control group treated with only LPS” value was “showed TNF-α inhibiting effect”; the “TNF-α inhibiting effect compared to the group treated with LPS and estrogen” value was “showed TNF-α inhibiting effect”.

As for “SRLRFIP (listed as Homo sapiens) [SEQ ID NO: 165]”, the “TNF-α inhibiting effect compared to the control group treated with only LPS” value is “showed TNF-α inhibiting effect”; the “TNF-α inhibiting effect compared to the group treated with LPS and estrogen” value is “showed TNF-α inhibiting effect”.

As to “EVRQHREARPALLTSRLRFIPKPDGLR (listed as Homo sapiens) [SEQ ID NO: 45]”, the “TNF-α inhibiting effect compared to the control group treated with only LPS” value is reported as “showed TNF-α inhibiting effect”.

As to “LRFIP (listed as Homo sapiens) [SEQ ID NO: 174]”, the “TNF-α inhibiting effect compared to the control group treated with only LPS” value was “showed TNF-α inhibiting effect”; the “TNF-α inhibiting effect compared to the group treated with LPS and estrogen” value was “showed TNF-α inhibiting effect”.

Regarding “ALLTSR (listed as Homo sapiens) [SEQ ID NO: 142]”, the “TNF-α inhibiting effect compared to the control group treated with only LPS” value is “showed TNF-α inhibiting effect”.

As for “LLTSRL (listed as Homo sapiens) [SEQ ID NO: 108]”, the “TNF-α inhibiting effect compared to the control group treated with only LPS” value is “showed TNF-α inhibiting effect”; the “TNF-α inhibiting effect compared to the group treated with LPS and estrogen” value is listed as “showed TNF-α inhibiting effect”.

As to “EARPALLTSRLRFIPKPDGLRPIV (listed as Homo sapiens) [SEQ ID NO: 71]”, the “TNF-α inhibiting effect compared to the control group treated with only LPS” value is reported as “showed TNF-α inhibiting effect”; the “TNF-α inhibiting effect compared to the group treated with LPS and estrogen” value was “showed TNF-α inhibiting effect”.

Take “AEVRQHREARPALLTSRLRFIPKPDG (listed as Homo sapiens) [SEQ ID NO: 54]”: the “TNF-α inhibiting effect compared to the control group treated with only LPS” value is reported as “showed TNF-α inhibiting effect”; the “TNF-α inhibiting effect compared to the group treated with LPS and estrogen” value is listed as “showed TNF-α inhibiting effect”.

Take “LRFI (listed as Homo sapiens) [SEQ ID NO: 175]”: the “TNF-α inhibiting effect compared to the control group treated with only LPS” value is “showed TNF-α inhibiting effect”.

Consider “ALLTSRL (listed as Homo sapiens) [SEQ ID NO: 141]”, for which the “TNF-α inhibiting effect compared to the control group treated with only LPS” value was “showed TNF-α inhibiting effect”.

With “EARPALLTSRLRFIPKPD (listed as Homo sapiens) [SEQ ID NO: 66]”, the “TNF-α inhibiting effect compared to the control group treated with only LPS” value was “showed TNF-α inhibiting effect”.

For “RQHREARPALLTSRLRFIPKP (listed as Homo sapiens) [SEQ ID NO: 25]”, the “TNF-α inhibiting effect compared to the control group treated with only LPS” value is given as “showed TNF-α inhibiting effect”; the “TNF-α inhibiting effect compared to the group treated with LPS and estrogen” value is “showed TNF-α inhibiting effect”.

Consider “EARPALLTSRL (listed as Homo sapiens) [SEQ ID NO: 82]”, for which the “TNF-α inhibiting effect compared to the control group treated with only LPS” value is “showed TNF-α inhibiting effect”; the “TNF-α inhibiting effect compared to the group treated with LPS and estrogen” value is “showed TNF-α inhibiting effect”.

Take “RELSEAEVRQHREARPALLTSRLRFIPK (listed as Homo sapiens) [SEQ ID NO: 13]”: the “TNF-α inhibiting effect compared to the control group treated with only LPS” value is reported as “showed TNF-α inhibiting effect”.

As to “SRLRFIPK (listed as Homo sapiens) [SEQ ID NO: 98]”, the “TNF-α inhibiting effect compared to the control group treated with only LPS” value is “showed TNF-α inhibiting effect”; the “TNF-α inhibiting effect compared to the group treated with LPS and estrogen” value is on record as “showed TNF-α inhibiting effect”.

In the case of “EARPALLTSRLRFIPKPDGLRPI (listed as Homo sapiens) [SEQ ID NO: 70]”, the “TNF-α inhibiting effect compared to the control group treated with only LPS” value is “showed TNF-α inhibiting effect”; the “TNF-α inhibiting effect compared to the group treated with LPS and estrogen” value is reported as “showed TNF-α inhibiting effect”.

In the case of LRF [SEQ ID NO: 176], the “TNF-α inhibiting effect compared to the control group treated with only LPS” value is listed as “showed TNF-α inhibiting effect”.

For “RLRF (listed as Homo sapiens) [SEQ ID NO: 172]”, the “TNF-α inhibiting effect compared to the control group treated with only LPS” value was “showed TNF-α inhibiting effect”; the “TNF-α inhibiting effect compared to the group treated with LPS and estrogen” value is reported as “showed TNF-α inhibiting effect”.

As to “HREARPALLTSRLRFIPKPD (listed as Homo sapiens) [SEQ ID NO: 18]”, the “TNF-α inhibiting effect compared to the control group treated with only LPS” value is recorded as “showed TNF-α inhibiting effect”; the “TNF-α inhibiting effect compared to the group treated with LPS and estrogen” value is on record as “showed TNF-α inhibiting effect”.

In the case of “EARPALLTSRLRFIPKP (listed as Homo sapiens) [SEQ ID NO: 65]”, the “TNF-α inhibiting effect compared to the control group treated with only LPS” value was “showed TNF-α inhibiting effect”; the “TNF-α inhibiting effect compared to the group treated with LPS and estrogen” value is listed as “showed TNF-α inhibiting effect”.

Take “LTSRLRFIPK (listed as Homo sapiens) [SEQ ID NO: 96]”: the “TNF-α inhibiting effect compared to the control group treated with only LPS” value was “showed TNF-α inhibiting effect”; the “TNF-α inhibiting effect compared to the group treated with LPS and estrogen” value is reported as “showed TNF-α inhibiting effect”.
